In data set [1] the target is Human OGA (recombinant hOGA protein) (Homo sapiens (Human), UniProt O60502). In words: Human OGA enzyme activity assay (fluorescence, 4-Methylumbelliferyl N-acetyl-β-D-glucosaminide substrate). It is filed as biochemical. Particulars: for IC50: Table 1; for % of inhibition: Table 1, test concentration not given.
Sequence of Human OGA (recombinant hOGA protein) (O60502 whole entry): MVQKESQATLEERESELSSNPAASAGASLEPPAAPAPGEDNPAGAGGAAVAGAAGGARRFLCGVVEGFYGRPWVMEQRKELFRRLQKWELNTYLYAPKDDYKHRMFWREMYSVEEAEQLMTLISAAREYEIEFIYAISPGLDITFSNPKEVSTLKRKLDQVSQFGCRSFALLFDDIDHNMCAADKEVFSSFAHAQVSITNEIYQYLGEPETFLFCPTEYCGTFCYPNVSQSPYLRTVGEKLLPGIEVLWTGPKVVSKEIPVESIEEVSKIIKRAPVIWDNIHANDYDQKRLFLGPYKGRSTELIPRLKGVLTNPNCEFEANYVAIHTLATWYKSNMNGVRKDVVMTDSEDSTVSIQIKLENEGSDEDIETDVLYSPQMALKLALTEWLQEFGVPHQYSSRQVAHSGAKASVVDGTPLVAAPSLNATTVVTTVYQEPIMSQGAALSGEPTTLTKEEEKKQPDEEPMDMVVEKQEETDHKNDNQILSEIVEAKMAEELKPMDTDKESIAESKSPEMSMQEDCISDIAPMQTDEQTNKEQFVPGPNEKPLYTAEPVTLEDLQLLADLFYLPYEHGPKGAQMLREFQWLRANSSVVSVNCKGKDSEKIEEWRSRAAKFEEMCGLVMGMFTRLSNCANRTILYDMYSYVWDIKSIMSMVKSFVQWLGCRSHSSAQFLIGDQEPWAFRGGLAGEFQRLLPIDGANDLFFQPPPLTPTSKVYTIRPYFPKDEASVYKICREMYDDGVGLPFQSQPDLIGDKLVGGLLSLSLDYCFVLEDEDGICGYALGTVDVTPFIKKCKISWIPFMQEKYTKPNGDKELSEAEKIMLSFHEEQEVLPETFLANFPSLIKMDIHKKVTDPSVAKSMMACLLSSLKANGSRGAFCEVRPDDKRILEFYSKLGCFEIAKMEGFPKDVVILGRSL

Take `COc1ccc(NC(=O)C=C2CCN(Cc3cnc(NC(C)=O)s3)CC2)cc1` [Compound C-5, 2-(1-((2-acetamidothiazol-5-yl)methyl)piperidin-4 ylidene)-N-(4-methoxyphenyl)acetamide]: the melting point was in the range of 212 to 214 °C. Further, in data set [1], the IC50 worked out at 450 nM and the “% of inhibition” value is 94.8%.
For `CC(=O)Nc1ncc(CN2CCN(CC(=O)Nc3cnccn3)CC2)s1` [Compound A-19, 2-(4-((2-acetamidothiazol-5-yl)methyl)piperazin-1-yl)-N-(pyrazin-2-yl)acetamide], the melting point is 224 to 226 °C. Moreover, the “% of inhibition” value in data set [1] stood at 74.7%.
`CC(=O)Nc1ncc(CN2CCN(CC(=O)Nc3ccc(C)cn3)CC2)s1` [Compound A-17, 2-(4-((2-acetamidothiazol-5-yl)methyl)piperazin-1-yl)-N-(5-methylpyridin-2-yl) acetamide] gave a melting point of 224 to 230 °C. Moreover, the “% of inhibition” value in data set [1] worked out at 64.3%.
With `CC(=O)Nc1ncc(CN2CCN(CC(=O)Nc3ccc(N4CCN(C(C)=O)CC4)cc3)CC2)s1` [Compound A-36, 2-(4-((2-acetamidothiazol-5 yl)methyl)piperazin-1-yl)-N-(4-(4-acetylpiperazin-1-yl)phenyl)acetamide], the melting point lay within 180 to 182 °C. For the same molecule, in data set [1], the IC50 was 1040 nM and the “% of inhibition” value was 96.2%.
`CC(=O)Nc1ncc(CN2CCN(CC(=O)Nc3nc4ccccc4s3)CC2)s1` [Compound A-27, 2-(4-((2-acetamidothiazol-5-yl)methyl)piperazin-1 yl)-N-(benzo[d]thiazol-2-yl)acetamide] gave a melting point of 248 to 249 °C. For the same molecule, the “% of inhibition” value in data set [1] was determined as 46.2%.
Take `CC(=O)Nc1ncc(CN2CCC(C(=O)NCc3ccccc3)CC2)s1` [Compound B-7, 1-((2-acetamidothiazol-5-yl)methyl)-N-benzylpiperidine-4-carboxamide]: the melting point was in the range of 176 to 178 °C. Further, in data set [1], the IC50 was 1000 nM and the “% of inhibition” value was determined as 88.2%.
Taken in the same sequence, the figures for `CC(=O)Nc1ncc(CN2CCN(CC(=O)Nc3ccc4ncccc4c3)CC2)s1` [Compound A-22, 2-(4-((2-acetamidothiazol-5-yl)methyl)piperazin-1-yl)-N-(quinolin-6-yl)acetamide] were 248 to 250 °C, 900 nM and 97.5%.
Turning to `CC(=O)Nc1ncc(CN2CCC(C(=O)Nc3cnccn3)CC2)s1` [Compound B-4, 1-((2-acetamidothiazol-5-yl)methyl)-N-(pyrazin-2-yl)piperidine-4-carboxamide], the melting point fell in the range of 178 to 180 °C. Moreover, the “% of inhibition” value in data set [1] is on record as 66.9%.
`CC(=O)Nc1ncc(CN2CCC(C(=O)NC(C)c3ccccc3)CC2)s1` (centres unmarked) [Compound B-10, 1-((2-acetamidothiazol-5-yl)methyl)-N-(1-phenylethyl)piperidine-4-carboxamide] displayed a melting point of 178 to 179 °C. For the same molecule, in data set [1], the IC50 was found to be 900 nM and the “% of inhibition” value is on record as 93.3%.
Turning to `CC(=O)Nc1ncc(CN2CCN(CC(=O)Nc3ccc(Cc4ccccc4)cc3)CC2C)s1` (centres unmarked) [Compound A-39, 2-(4-((2-acetamidothiazol-5-yl)methyl)-3-methylpiperazin-1-yl)-N-(4-benzylphenyl)acetamide], the melting point fell in the range of 193 to 195 °C. Also, in data set [1], the IC50 amounted to 60 nM and the “% of inhibition” value was found to be 98.8%.
Regarding `COc1ccc2nc(NC(=O)CN3CCN(Cc4cnc(NC(C)=O)s4)CC3)sc2c1` [Compound A-28, 2-(4-((2-acetamidothiazol-5-yl)methyl)piperazin-1-yl)-N-(6-methoxybenzo[d]thiazol-2-yl)acetamide], the “% of inhibition” value in data set [1] was found to be 19.2%.
The molecule `CC(=O)Nc1ncc(CN2CCC(C(=O)NC3CCCCC3)CC2)s1` [Compound B-5, 1-((2-acetamidothiazol-5-yl)methyl)-N-cyclohexylpiperidine-4-carboxamide] gave a melting point of 231 to 232 °C. Further, in data set [1], the “% of inhibition” value stood at 46.7%.
The molecule `CC(=O)Nc1ncc(CN2CCCC(C(=O)NC3CCCCC3)C2)s1` (centres unmarked) [Compound B-19, 1-((2-acetamidothiazol-5 yl)methyl)-N-cyclohexylpiperidine-3-carboxamide] came in with a melting point of 265 to 267 °C. Further, in data set [1], the IC50 came to 450 nM and the “% of inhibition” value was 97.6%.
`COc1ccc(NC(=O)C=C2CCN(Cc3cnc(NC(C)=O)s3)CC2)cc1OC` [Compound C-6, 2-(1-((2-acetamidothiazol-5-yl)methyl)piperidin-4-ylidene)-N-(3,4-dimethoxyphenyl)acetamide] showed a melting point of 214 to 219 °C. For the same molecule, in data set [1], the IC50 worked out at 350 nM and the “% of inhibition” value came to 95.8%.
Molecule `CC(=O)Nc1ncc(CN2CCN(CC(=O)NC3CCCCC3)CC2)s1` [Compound A-20, 2-(4-((2-acetamidothiazol-5-yl)methyl)piperazin-1-yl)-N-cyclohexylacetamide] showed a melting point of 198 to 200 °C. In data set [1], the IC50 came out at 1400 nM and the “% of inhibition” value worked out at 89.0%.
With `CC(=O)Nc1ncc(CN2CCN(CC(=O)Oc3ccccc3)CC2)s1` [Compound A-2, phenyl 2-(4-((2-acetamidothiazol-5-yl)methyl)piperazin-1-yl)acetate], the melting point is 185 to 194 °C. In data set [1], the “% of inhibition” value is given as 34.6%.
`CC(=O)Nc1ncc(CN2CCN(CC(=O)NCc3ccc(-c4ccccc4)cc3)CC2)s1` [Compound A-40, N-([1,1′-biphenyl]-4-ylmethyl)-2-(4-((2-acetamidothiazol-5-yl)methyl)piperazin-1-yl)acetamide] gave a melting point of 167 to 170 °C. Moreover, in data set [1], the IC50 amounted to 210 nM and the “% of inhibition” value amounted to 97.7%.
The matching figures for `CC(=O)Nc1ncc(CN2CCN(CC(=O)Nc3ccc(Cl)cc3Br)CC2)s1` [Compound A-13, 2-(4-((2-acetamidothiazol-5-yl)methyl)piperazin-1-yl)-N-(2-bromo-4-chlorophenyl)acetamide]: 212 to 213 °C, 1700 nM and 85.2%.
Taken in the same sequence, the figures for `CC(=O)Nc1ncc(CN2CCCC(C(=O)Nc3ccc(F)cc3)C2)s1` (centres unmarked) [Compound B-17, 1-((2-acetamidothiazol-5-yl)methyl)-N-(4-fluorophenyl)piperidine-3-carboxamide] were 127 to 129 °C, 340 nM and 96.7%.
Taken in the same sequence, the figures for `COc1ccc(CNC(=O)C=C2CCN(Cc3cnc(NC(C)=O)s3)CC2)cc1` [Compound C-7, 2-(1-((2-acetamidothiazol-5-yl)methyl)piperidin-4-ylidene)-N-(4-methoxybenzyl)acetamide] were 222 to 224 °C, 80 nM and 98.2%.
For the molecule `CC(=O)Nc1ncc(CN2CCN(CC(=O)Nc3ccc(C)cc3)CC2)s1` [Compound A-3, 2-(4-((2-acetamidothiazol-5-yl)methyl)piperazin-1-yl)-N-(p-tolyl)acetamide], the melting point was in the range of 213 to 217 °C. Besides, in data set [1], the “% of inhibition” value was 70.7%.
As for `CC(=O)Nc1ncc(CN2CCC(C(=O)Nc3ccc(Cl)cc3)CC2)s1` [Compound B-2, 1-((2-acetamidothiazol-5-yl)methyl)-N-(4-chlorophenyl)piperidine-4-carboxamide], the melting point lay in the range of 258 to 260 °C. In data set [1], the IC50 turned out to be 270 nM and the “% of inhibition” value is 91.0%.
Take `CC(=O)Nc1ncc(CN2CCCC(C(=O)Nc3ccc(C(C)C)cc3)C2)s1` (centres unmarked) [Compound B-18, 1-((2-acetamidothiazol-5-yl)methyl)-N-(4-isopropylphenyl)piperidine-3-carboxamide]: the melting point was in the range of 234 to 236 °C. Further, in data set [1], the IC50 worked out at 240 nM and the “% of inhibition” value is on record as 96.4%.
Taken in the same sequence, the figures for `CC(=O)Nc1ncc(CN2CCC(=CC(=O)Nc3ccc(C(C)C)cc3)CC2)s1` [Compound C-4, 2-(1-((2-acetamidothiazol-5-yl)methyl)piperidin-4-ylidene)-N-(4-isopropylphenyl)acetamide] were 232 to 236 °C, 230 nM and 97.0%.
The matching figures for `CC(=O)Nc1ncc(CN2CCN(CC(=O)Nc3ccc(Cl)cc3)CC2)s1` [Compound A-12]: 232 to 236 °C, 1990 nM and 81.6%.
On to `CC(=O)Nc1ncc(CN2CCN(CC(=O)Nc3ccccc3)CC2)s1` [Compound A-1, 2-(4-((2-acetamidothiazol-5-yl)methyl)piperazin-1-yl)-N-phenylacetamide], for which, in data set [1], the IC50 stood at 2600 nM and the “% of inhibition” value amounted to 78.3%.
Taken in the same sequence, the figures for `CC(=O)Nc1ncc(CN2CCC(C(=O)NC(C)c3ccc(C)cc3)CC2)s1` (centres unmarked) [Compound B-11, 1-((2-acetamidothiazol-5-yl)methyl)-N-(1-(p-tolyl)ethyl)piperidine-4-carboxamide] were 830 nM and 93.3%.
Take `CC(=O)Nc1ncc(CN2CCN(CC(=O)Nc3ccccn3)CC2)s1` [Compound A-15, 2-(4-((2-acetamidothiazol-5-yl)methyl)piperazin-1-yl) N-(pyridin-2-yl)acetamide]: in data set [1], the “% of inhibition” value was found to be 90.9%.
In the case of “1-((2-acetamidothiazol-5-yl)methyl)-N-(p-tolyl)piperidine-4-carboxamide [Compound B-15]”, in data set [1], the IC50 amounted to 160 nM and the “% of inhibition” value worked out at 91.2%.
Regarding “1-((2-acetamidothiazol-5-yl)methyl)-N-(4-fluorophenyl)piperidine-4-carboxamide [Compound B-14]”, in data set [1], the IC50 came to 300 nM and the “% of inhibition” value turned out to be 89.0%.
As to `CC(=O)Nc1ncc(CN2CCC(C(=O)NC(C)c3ccc4ccccc4c3)CC2)s1` (centres unmarked) [Compound B-12, 1-((2-acetamidothiazol-5 yl)methyl)-N-(1-(naphthalen-2-yl)ethyl)piperidine-4-carboxamide], in data set [1], the IC50 was determined as 250 nM and the “% of inhibition” value was 96.8%.

The values above are taken from patent US20240018135A1, “COMPOUND HAVING INHIBITORY ACTIVITY AGAINST O-GLUSACASE AND USE THEREOF” (MEDIFRON DBT INC., priority 2020, published 2024).
